Test results as given in paper doi:10.1101/2021.09.28.462122v1 (biorxiv, 2021).

Each compound was assayed against T1, AtGDH (Aspergillus terreus NADP+-specific glutamate dehydrogenase) (Aspergillus terreus, UniProt T2D1F5) (assay: NADPH oxidation at […] nm, reductive amination).
T1 sequence (T2D1F5 1-460): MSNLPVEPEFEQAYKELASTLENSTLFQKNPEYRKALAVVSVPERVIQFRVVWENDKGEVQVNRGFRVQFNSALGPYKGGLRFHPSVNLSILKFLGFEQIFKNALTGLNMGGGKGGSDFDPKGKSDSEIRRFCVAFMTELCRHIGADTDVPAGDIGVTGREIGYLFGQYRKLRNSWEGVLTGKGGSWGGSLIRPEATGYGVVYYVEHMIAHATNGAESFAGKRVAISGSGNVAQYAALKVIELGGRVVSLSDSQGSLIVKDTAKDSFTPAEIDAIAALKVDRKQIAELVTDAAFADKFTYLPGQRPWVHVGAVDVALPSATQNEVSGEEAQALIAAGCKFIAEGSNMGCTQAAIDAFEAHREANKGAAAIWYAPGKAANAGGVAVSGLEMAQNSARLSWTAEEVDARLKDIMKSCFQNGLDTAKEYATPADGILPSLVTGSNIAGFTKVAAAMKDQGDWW
Format: biochemical

| Compound | Ki [mM] |
| --- | --- |
| O=C(O)CCC(=O)O [succinate] | 39.1 |
| O=C(O)/C=C/C(=O)O [fumarate] | 23.2 |

Now from value to compound:

| Ki [mM] | Compound |
| --- | --- |
| 19.5 | O=C(O)CC(=O)O [malonate] |
| 50.8 | O=C(O)C(O)C(O)C(=O)O (centres unmarked) [tartrate] |
| 36.2 | O=C(O)/C=C\C(=O)O [maleate] |
